Among the data in ChEMBL document CHEMBL4406848, “Novel water soluble BODIPY compounds: Synthesis, photochemical, DNA interaction, topoisomerases inhibition and photodynamic activity properties” (Eur J Med Chem, 2019) are Activity values, retold here.

A short description of experiment [1]: Induction of singlet oxygen generation in TBS solution assessed as singlet oxygen quantum yield by measuring reduction in ADMA irradiated with 650 nanometer laser light. The class given is functional.
Experiment [2] in a line: Induction of singlet oxygen generation in DMSO solution assessed as singlet oxygen quantum yield by measuring reduction in DPBF irradiated with 650 nanometer laser light. The experiment is classed as functional.

Take `CN(C)c1ccc2nc3ccc(=[N+](C)C)cc-3sc2c1`: the figures for the Activity in experiment [1] and in experiment [2] were 0.52 and 0.57, respectively.
